In general, pIC50 refers to −log10 of the IC50, conventionally taken in molar units. As a reminder, the IC50 is the concentration that gives 50% inhibition.

pIC50: −log10 of the molar value. In brackets after ≈: the same amount, converted by molar mass. Several values for one entry are separate records, joined by “and”; a condition that tells them apart may be missing. Equal values may be shown once. Read-outs that look alike come from different tables or passages of the source. Bounds are passed on as bounds.

The results in this text go back to paper PMC8922281, “Synthesis and In Vitro Biological Evaluation of Quinolinyl Pyrimidines Targeting Type II NADH-Dehydrogenase (NDH-2)” (ACS Infectious Diseases, 2022).

The subject of data set [1] is Trypanosoma brucei brucei Squib 427. In words: Trypanosoma brucei growth (resazurin). It counts as cell-based. Conditions: reference compound. As to the method: page 46: of PES (phenazine ethosulfate, 0.1 mg/ml) and NBT (Nitro Blue Tetrazolium Grade III, 2 mg/ml) in a new plate. The absorbance change was measured at 655nm. The results were shown as % reduction in parasitemia, compared to control wells with no treatment. […] A compound […] secondary screening. 3. Trypanosoma brucei sample has 7*104 parasites/ml in the suspension. Cultured for 3 days, the growth of the cells was assessed fluorimetrically with the addition of resazurin in a microtiter plate. The fluorescence intensity was measured after 24h at 37 °C with the excitation wavelength at 550nm and the emission wavelength at 590nm. The results were presented as % reduction in parasite growth, compared to reference wells with no treatment, followed by IC50 calculation. Suramine was used as the reference compound […] subsequently evaluated in a secondary assay, with broader concentration range, additional references, and other species. IC50 values are shown in Table S1, followed by semi-quantitative activity scores, and indications for specificity. […]
(In general: Resazurin is reduced to fluorescent resorufin, in cell work by metabolically active cells.)

In a further data set the test system is HepG2 cells. Conditions: human, 72 h.
For data set [2], the system named is M. tuberculosis strain H37Rv (ATCC 25618). The experiment in a line: MIC on M. tuberculosis by resazurin reduction microplate assay (REMA). It counts as cell-based. The conditions noted are these: Mycobacterium tuberculosis.
The test system of a further data set is P. falciparum K1. In words: Plasmodium falciparum K1 growth (Malstat). It counts as cell-based. The conditions noted are these: reference compound, 72 h. As to the method: acceptor at a range of concentrations.
2.1.3. IC50 determination
Compounds were pre-incubated
IC50 is calculated. […] The […]
of PES (phenazine ethosulfate, 0.1 mg/ml) and NBT (Nitro Blue Tetrazolium Grade III, 2 mg/ml) in a new plate. The absorbance change was measured at 655nm. The results were shown as % reduction in parasitemia, compared to control wells with no treatment.
3. Trypanosoma brucei sample has 7*104 parasites/ml in the suspension. Cultured for 3 days, the growth of the cells was assessed fluorimetrically with the addition of resazurin in a microtiter plate. The fluorescence intensity was measured after 24h at 37 °C with the excitation wavelength at 550nm and the emission wavelength at 590nm. The results were presented as % reduction in parasite growth, compared to reference wells with no treatment, followed by IC50 calculation. Suramine was used as the reference compound […]
A compound with IC50 higher than 5 µM is classified as the […]
subsequently evaluated in a secondary assay, with broader concentration range, additional references, and other species.
IC50 values are shown in Table S1, followed by semi-quantitative activity scores, and indications for specificity. […]

Data set [3] relates to P. aeruginosa (PAO750 efflux-defective mutant, isogenic to PAO1). In words: microbe, parasite or virus in culture. The format is cell-based. Conditions: Pseudomonas aeruginosa, PAO1, read-out: MIC Pa efflux.
Data set [4] relates to S. aureus (ATCC 29213, wild-type). The experiment in a line: MIC on ESKAPE pathogens, S. aureus. Conditions: Staphylococcus aureus, ATCC29213. It counts as cell-based.
In the next data set the target is MsNDH-2 (Mycolicibacterium smegmatis, UniProt A0QYD6). The experiment in a line: Inhibition of MsNDH-2 (NADH oxidation with menadione, absorbance at 340 nm). The format is biochemical, M. smegmatis.
The next data set addresses MtNDH-2 (Mycobacterium tuberculosis, UniProt P95160). The experiment in a line: biochemical. Conditions: MtNDH-2 IC50. Also noted: species or system M. tuberculosis.
The subject of data set [5] is P. aeruginosa PAO1 resistant mutants. In words: microbe, parasite or virus in culture. It counts as cell-based.
A short description of data set [6]: Cytotoxicity on the MRC-5 cell line (resazurin). The format is cell-based. The conditions noted are these: human, MRC-5SV2 cells, MRC-5SV2, 3 days. In short, it runs like this:
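MRC-5SV2 cells, about 10^4 per well in Earl's MEM with 5% FCSi, were exposed to compounds for 3 days. Viability read fluorimetrically with resazurin (ex 550, em 590 nm) as % reduction versus untreated wells, giving CC50.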

The subject of data set [7] is A. baumannii (ATCC 19606, wild-type). The experiment in a line: MIC on ESKAPE pathogens, A. baumannii. Conditions: Acinetobacter baumannii, ATCC19606; A. baumannii ATCC 19606, wild-type; read-out: MIC Ab WT. It counts as cell-based.
Data set [8] relates to E. coli (ATCC 25922, wild-type). The experiment in a line: MIC on ESKAPE pathogens, E. coli wild-type. The format is cell-based. The conditions noted are these: Escherichia coli.
Data set [9] deals with E. coli (ΔtolC efflux-defective mutant, isogenic to ATCC 25922). In words: microbe, parasite or virus in culture. The conditions noted are these: Escherichia coli, ATCC25922, read-out: MIC Ec ΔtolC. It counts as cell-based.
Data set [10] has as its system E. coli (D22, lpxC mutant, drug-hypersensitive). In words: microbe, parasite or virus in culture. It counts as cell-based. The conditions noted are these: Escherichia coli, read-out: MIC Ec D22.
For data set [11], the system named is K. pneumonia (ATCC 13833, wild-type). The experiment in a line: MIC on ESKAPE pathogens, K. pneumoniae.
For data set [12], the system named is P. aeruginosa (PAO1, wild-type). In words: MIC on ESKAPE pathogens, P. aeruginosa wild-type. It counts as cell-based. The conditions noted are these: Pseudomonas aeruginosa.
For data set [13], the system named is Trypanosoma cruzi Tulahuen LacZ (clone C4). In words: Trypanosoma cruzi growth on MRC-5 cells (CPRG). Conditions: MRC5, 168 h, read-out: IC50 Trypanosoma cruzi.
Procedure: In vitro biology: Minimum inhibitory concentration (MIC) assays on parasites Synthesized compounds were tested against different parasite cell lines (T. brucei, T. cruzi, and P. falciparum K1) for the MIC determination.
Trypanosoma cruzi cells were maintained on MRC-5 human lung fibroblast cells. The assay was performed with 5% CO2 at 37 °C in a 96-well microtiter plate. Each well contains 10 µl compound dilution and 190 µl parasite/MRC-5 cell inoculum (10:1 parasites : cells). Parasite burdens were evaluated with addition of substrate CPRG (50 µl/well stock solution with 15.2mg CPRG + 250 µl Nonidet in 100 ml PBS). After 4h incubation, the absorbance change was measured spectrophotometrically at 540 nm at 37 °C. The res ults were presented as % growth, compared with non-infected cells (0% growth) and untreated-infected controls (100 % growth) after 7-day incubation, and the
For data set [14], the system named is E. coli MG1655 ΔtolC resistant mutants. In words: microbe, parasite or virus in culture. It counts as cell-based. Conditions: for MIC: Escherichia coli.
Where [15] appears, read: H37Rv, reference antitubercular agents, read-out: MIC M. tuberculosis.
The mark [16] stands for this setting: 95% confidence interval in parentheses, 50 nM enzyme, 50 μM menadione, >100: no significant inhibition at 100 μM.
Setting [17] is: same IC50 given in μg/mL to assist comparisons with MICs.
[18] abbreviates: M. tuberculosis H37Rv, read-out: MIC Mtb.

MtNDH-2, sequence (P95160 2-463, added parts left off): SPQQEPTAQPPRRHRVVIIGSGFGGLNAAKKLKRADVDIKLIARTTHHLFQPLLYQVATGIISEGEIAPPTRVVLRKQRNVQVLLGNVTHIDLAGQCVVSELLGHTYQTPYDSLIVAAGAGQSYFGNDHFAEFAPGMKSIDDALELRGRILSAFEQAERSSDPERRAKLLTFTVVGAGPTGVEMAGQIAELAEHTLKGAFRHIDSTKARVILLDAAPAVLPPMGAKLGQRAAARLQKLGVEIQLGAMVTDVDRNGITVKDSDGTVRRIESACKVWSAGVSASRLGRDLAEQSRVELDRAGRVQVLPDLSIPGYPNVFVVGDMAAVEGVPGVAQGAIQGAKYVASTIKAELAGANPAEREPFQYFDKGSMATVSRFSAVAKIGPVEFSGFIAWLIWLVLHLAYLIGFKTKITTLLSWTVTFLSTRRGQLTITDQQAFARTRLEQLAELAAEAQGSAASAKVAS
MsNDH-2, sequence (A0QYD6 1-457): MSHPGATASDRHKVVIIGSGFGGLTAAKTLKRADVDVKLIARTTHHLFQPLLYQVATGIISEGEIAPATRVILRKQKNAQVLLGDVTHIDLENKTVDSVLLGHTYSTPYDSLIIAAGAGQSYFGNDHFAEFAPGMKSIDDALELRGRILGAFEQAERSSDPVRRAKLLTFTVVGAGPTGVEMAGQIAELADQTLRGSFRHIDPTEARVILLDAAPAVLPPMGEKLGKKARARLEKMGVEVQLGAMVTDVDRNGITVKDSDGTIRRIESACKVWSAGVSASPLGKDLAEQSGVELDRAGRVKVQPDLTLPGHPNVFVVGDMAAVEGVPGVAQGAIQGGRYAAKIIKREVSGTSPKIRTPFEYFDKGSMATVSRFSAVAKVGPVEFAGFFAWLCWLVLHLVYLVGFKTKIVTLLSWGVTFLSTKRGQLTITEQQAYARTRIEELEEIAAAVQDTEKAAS

In turn, `Cc1ccc(C(=O)Nc2ccc(S(=O)(=O)O)c3cc(S(=O)(=O)O)cc(S(=O)(=O)O)c23)cc1NC(=O)c1cccc(NC(=O)Nc2cccc(C(=O)Nc3cc(C(=O)Nc4ccc(S(=O)(=O)O)c5cc(S(=O)(=O)O)cc(S(=O)(=O)O)c45)ccc3C)c2)c1` [Suramine] gave a pIC50 in data set [1] of 7.40.
Regarding `COc1nc2ccc(Br)cc2cc1[C@@H](c1ccccc1)[C@@](O)(CCN(C)C)c1cccc2ccccc12` [bedaquiline, reference compound], in the data set with HepG2 cells, the “cytotoxicity HepG2 TD50” value turned out to be 50 µM and the “cytotoxicity HepG2 TD99” value was not below 100 µM. Also, the MIC in [2] (setting [15]) turned out to be 0.37 µM.
As for `CCN(CC)CCCC(C)Nc1ccnc2cc(Cl)ccc12` (centres unmarked) [Chloroquine], in the data set on P. falciparum K1, the pIC50 is 6.68.
For the compound `CO[C@H]1/C=C/O[C@@]2(C)Oc3c(C)c(O)c4c(O)c(c(/C=N/N5CCN(C)CC5)c(O)c4c3C2=O)NC(=O)/C(C)=C\C=C\[C@H](C)[C@H](O)[C@@H](C)[C@@H](O)[C@@H](C)[C@H](OC(C)=O)[C@@H]1C` [Rifampicin, reference compound], in the data set on HepG2 cells, the “cytotoxicity HepG2 TD50” value is 75 µM and the “cytotoxicity HepG2 TD99” value was not below 100 µM. Further, the MIC in data set [2] (setting [15]) turned out to be 0.0003 µM.
`Nc1nc(Nc2ccc3nc(-c4ccc(F)cc4)cc(N)c3c2)cc(N2CCC(N)CC2)n1` [Compound 8j, N^6-(2-Amino-6-(4-aminopiperidin-1-yl)pyrimidin-4-yl)-2-(4-fluorophenyl)quinoline-4,6-diamine]: the MIC stood at 8 µg/mL (≈ 18 µM) in [3]; 32 µg/mL (≈ 72 µM) in data set [4]; 32 µg/mL (≈ 72 µM) in data set [5] (Pseudomonas aeruginosa, PAO1, read-out: MIC mutant); 44.5 µg/mL in [2] (setting [18]); 128 µg/mL (≈ 288 µM) in [7]; 64 µg/mL (≈ 144 µM) in data set [8] (ATCC25922, E. coli ATCC 25922, wild-type, read-out: MIC Ec WT). The MIC was determined as 16 µg/mL (≈ 36 µM) in data set [9]; 8 µg/mL (≈ 18 µM) in data set [10]; 4 µg/mL (≈ 9 µM) in [12] (PAO1, P. aeruginosa PAO1, wild-type, read-out: MIC Pa WT). Moreover, the pIC50 is 4.68 on MsNDH-2 (setting [16]); 4.67 on MsNDH-2 (setting [17]); 5.21 and 5.22 against MtNDH-2. In addition, the “fold increase of MIC” value in data set [5] (mutant CH5071 vs parent P. aeruginosa PAO1), in data set [5] (mutant CH5072 vs parent P. aeruginosa PAO1), in data set [5] (mutant CH5073 vs parent P. aeruginosa PAO1), in data set [5] (mutant CH5075 vs parent P. aeruginosa PAO1) and in data set [5] (mutant CH5077 vs parent P. aeruginosa PAO1) was 8 throughout. Further, the MIC mutant in [5] (mutant CH5072 raised against 8j, phoQ Leu158fs) is 32 µg/mL (≈ 72 µM); in [5] (mutant CH5073 raised against 8j, basS (pmrB) Ser257Asn), 32 µg/mL (≈ 72 µM); in [5] (mutant CH5075 raised against 8j, basS (pmrB) Ala29Glu) it was 32 µg/mL (≈ 72 µM); in data set [5] (mutant CH5077 raised against 8j, phoQ Ser151 stop codon), 32 µg/mL (≈ 72 µM). The IC50 at 3 days in [6] (resazurin) worked out at 22000 nM; in [6] (value in parentheses), 9.8 µg/mL. In data set [11], the “MIC Kp WT” value is more than 128 µg/mL.
For the compound `O=C(Cn1ccnc1[N+](=O)[O-])NCc1ccccc1` [Benznidazole], in data set [13], the pIC50 was 5.77.
In the case of `CC(C)(C)OC(=O)NCC1CCN(c2cc(Nc3ccc4nc(-c5ccc(F)cc5)cc(N)c4c3)nc(N)n2)CC1` [Compound 8g, tert-Butyl ((1-(2-Amino-6-((4-amino-2-(4-fluorophenyl)quinolin-6-yl)amino)pyrimidin-4-yl)piperidin-4-yl)methyl)carbamate], the MIC in [3] came to 128 µg/mL (≈ 229 µM); in data set [4], 4 µg/mL (≈ 7.16 µM); in data set [14] (MG1655, read-out: MIC mutant, mutant CH5053 raised against 8g, ackA Leu255Arg) it was 16 µg/mL (≈ 28.6 µM); in data set [14] (MG1655, read-out: MIC mutant, mutant CH5054 raised against 8g, ackA Glu375 stop codon), 16 µg/mL (≈ 28.6 µM); in data set [14] (MG1655, read-out: MIC mutant, mutant CH5055 raised against 8g, ackA Thr233Pro), 16 µg/mL (≈ 28.6 µM); in [14] (MG1655, read-out: MIC mutant, mutant CH5056 raised against 8g, ackA Gly275Asp) it was 16 µg/mL (≈ 28.6 µM). Besides, the MIC was determined as 8 µg/mL (≈ 14.3 µM) in [14] (MG1655, read-out: MIC mutant, mutant CH5057 raised against 8g, eno Pro38Leu); 16 µg/mL (≈ 28.6 µM) in data set [14] (MG1655, read-out: MIC mutant, mutant CH5058 raised against 8g, ackA Ile92fs); 16 µg/mL (≈ 28.6 µM) in data set [14] (MG1655, read-out: MIC mutant, mutant CH5059 raised against 8g, ackA Arg91Ser); 16 µg/mL (≈ 28.6 µM) in [14] (MG1655, read-out: MIC mutant, mutant CH5062 raised against 8g, ackA Gly241Asp); 16 µg/mL (≈ 28.6 µM) in [14] (MG1655, read-out: MIC mutant, mutant CH5063 raised against 8g, ackA Arg91Leu); 6.8 µg/mL in [2] (setting [18]). The MIC in data set [7] was 4 µg/mL (≈ 7.16 µM); in data set [8] (ATCC25922, read-out: MIC Ec WT), more than 128 µg/mL; in data set [9], 4 µg/mL (≈ 7.16 µM); in [10], 4 µg/mL (≈ 7.16 µM); in data set [12] (PAO1, read-out: MIC Pa WT), more than 128 µg/mL. Further, the pIC50 was 6.24 on MsNDH-2 (setting [16]), 6.27 at MsNDH-2 (setting [17]) and 6.54 against MtNDH-2. Also, the “fold increase of MIC” value is recorded as 4 in [14] (mutant CH5053 vs parent E. coli MG1655 ΔtolC); 4 in data set [14] (mutant CH5054 vs parent E. coli MG1655 ΔtolC); 4 in [14] (mutant CH5055 vs parent E. coli MG1655 ΔtolC); 4 in data set [14] (mutant CH5056 vs parent E. coli MG1655 ΔtolC); 2 in data set [14] (mutant CH5057 vs parent E. coli MG1655 ΔtolC); 4 in data set [14] (mutant CH5058 vs parent E. coli MG1655 ΔtolC). Further, the “fold increase of MIC” value in data set [14] (mutant CH5059 vs parent E. coli MG1655 ΔtolC), in data set [14] (mutant CH5062 vs parent E. coli MG1655 ΔtolC) and in [14] (mutant CH5063 vs parent E. coli MG1655 ΔtolC) was 4 each time. Further, the values for the IC50 at 3 days in data set [6] (resazurin) and in [6] (value in parentheses) were 1400 nM and 0.8 µg/mL, respectively. Besides, the “MIC Kp WT” value in [11] came to 128 µg/mL (≈ 229 µM).
